These results are taken from PMC7026418, “The kinase polypharmacology landscape of clinical PARP inhibitors” (Scientific Reports, 2020).

Common to all, as to test: biochemical
Set-up in all cases: DiscoveRx KINOMEscan active site-directed competition binding; percent of control kinase bound to immobilised ligand

One test has as its target LRRK2 (Homo sapiens, UniProt Q5S007).
For a further test, the target named is T1, PIK3C2G (Homo sapiens, UniProt O75747).
T1 sequence (O75747 1-1486): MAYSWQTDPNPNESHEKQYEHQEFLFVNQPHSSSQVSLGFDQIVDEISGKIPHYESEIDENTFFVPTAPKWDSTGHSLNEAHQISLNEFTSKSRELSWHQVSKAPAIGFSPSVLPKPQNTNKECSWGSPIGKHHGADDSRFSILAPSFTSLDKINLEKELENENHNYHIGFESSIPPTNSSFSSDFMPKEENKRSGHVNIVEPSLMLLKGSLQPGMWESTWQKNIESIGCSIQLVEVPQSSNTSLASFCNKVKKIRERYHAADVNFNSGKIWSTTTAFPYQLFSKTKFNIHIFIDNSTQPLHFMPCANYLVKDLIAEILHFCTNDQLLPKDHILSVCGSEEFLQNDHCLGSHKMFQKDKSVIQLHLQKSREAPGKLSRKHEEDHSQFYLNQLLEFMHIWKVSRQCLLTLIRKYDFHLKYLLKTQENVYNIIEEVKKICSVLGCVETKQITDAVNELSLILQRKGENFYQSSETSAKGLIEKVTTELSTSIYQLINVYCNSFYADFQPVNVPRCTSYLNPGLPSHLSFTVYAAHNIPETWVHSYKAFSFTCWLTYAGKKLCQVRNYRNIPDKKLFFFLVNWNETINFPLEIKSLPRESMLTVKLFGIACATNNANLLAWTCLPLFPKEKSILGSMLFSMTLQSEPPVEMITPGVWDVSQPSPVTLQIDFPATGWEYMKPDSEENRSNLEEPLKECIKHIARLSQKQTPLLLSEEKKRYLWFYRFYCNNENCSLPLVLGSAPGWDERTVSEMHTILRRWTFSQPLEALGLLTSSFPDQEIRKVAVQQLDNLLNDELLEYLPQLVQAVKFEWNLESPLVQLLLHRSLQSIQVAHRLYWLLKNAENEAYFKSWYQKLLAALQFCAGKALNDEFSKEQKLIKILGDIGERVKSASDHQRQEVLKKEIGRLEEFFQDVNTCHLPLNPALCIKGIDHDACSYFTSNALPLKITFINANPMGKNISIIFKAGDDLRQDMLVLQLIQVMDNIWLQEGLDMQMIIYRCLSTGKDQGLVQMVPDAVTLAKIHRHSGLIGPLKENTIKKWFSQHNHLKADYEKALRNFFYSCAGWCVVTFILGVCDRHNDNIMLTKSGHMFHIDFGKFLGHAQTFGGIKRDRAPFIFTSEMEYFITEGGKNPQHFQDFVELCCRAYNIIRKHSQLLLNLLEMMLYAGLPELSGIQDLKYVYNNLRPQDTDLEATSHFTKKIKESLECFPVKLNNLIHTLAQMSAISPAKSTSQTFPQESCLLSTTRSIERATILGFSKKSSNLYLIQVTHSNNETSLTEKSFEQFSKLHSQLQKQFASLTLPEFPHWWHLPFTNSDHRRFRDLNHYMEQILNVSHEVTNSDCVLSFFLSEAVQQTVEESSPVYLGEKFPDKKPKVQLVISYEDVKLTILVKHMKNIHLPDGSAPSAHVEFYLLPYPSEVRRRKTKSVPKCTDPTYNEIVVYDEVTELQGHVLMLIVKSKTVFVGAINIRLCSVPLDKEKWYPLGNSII

The target in another test is T2, FLT3 (Homo sapiens, UniProt P36888).
T2 sequence (P36888 1-993): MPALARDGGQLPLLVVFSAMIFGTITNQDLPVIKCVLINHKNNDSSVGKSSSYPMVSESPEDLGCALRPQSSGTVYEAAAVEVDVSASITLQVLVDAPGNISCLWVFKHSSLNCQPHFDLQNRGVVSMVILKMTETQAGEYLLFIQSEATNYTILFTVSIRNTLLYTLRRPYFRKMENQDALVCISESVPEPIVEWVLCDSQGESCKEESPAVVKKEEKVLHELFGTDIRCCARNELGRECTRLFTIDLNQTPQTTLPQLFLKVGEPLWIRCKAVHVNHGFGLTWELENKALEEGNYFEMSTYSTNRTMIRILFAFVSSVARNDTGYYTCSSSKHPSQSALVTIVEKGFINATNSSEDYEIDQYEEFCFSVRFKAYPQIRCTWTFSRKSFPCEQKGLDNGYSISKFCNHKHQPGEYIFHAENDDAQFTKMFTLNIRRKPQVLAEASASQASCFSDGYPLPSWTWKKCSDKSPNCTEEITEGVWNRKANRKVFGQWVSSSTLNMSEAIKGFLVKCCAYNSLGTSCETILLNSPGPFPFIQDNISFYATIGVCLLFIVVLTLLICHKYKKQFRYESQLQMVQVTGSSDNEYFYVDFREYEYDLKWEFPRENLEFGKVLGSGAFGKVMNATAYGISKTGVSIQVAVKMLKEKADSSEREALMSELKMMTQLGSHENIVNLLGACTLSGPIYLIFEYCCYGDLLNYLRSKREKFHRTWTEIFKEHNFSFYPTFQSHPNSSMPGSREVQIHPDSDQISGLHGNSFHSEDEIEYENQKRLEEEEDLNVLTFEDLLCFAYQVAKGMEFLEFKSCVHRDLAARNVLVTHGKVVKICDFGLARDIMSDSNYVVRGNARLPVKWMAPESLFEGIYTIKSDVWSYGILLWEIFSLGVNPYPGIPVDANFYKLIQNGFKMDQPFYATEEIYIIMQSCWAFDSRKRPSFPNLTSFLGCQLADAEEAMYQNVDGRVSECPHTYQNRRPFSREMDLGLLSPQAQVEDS

The target in a further test is T3, AURKC (Homo sapiens, UniProt Q9UQB9).
T3 sequence (Q9UQB9 1-309): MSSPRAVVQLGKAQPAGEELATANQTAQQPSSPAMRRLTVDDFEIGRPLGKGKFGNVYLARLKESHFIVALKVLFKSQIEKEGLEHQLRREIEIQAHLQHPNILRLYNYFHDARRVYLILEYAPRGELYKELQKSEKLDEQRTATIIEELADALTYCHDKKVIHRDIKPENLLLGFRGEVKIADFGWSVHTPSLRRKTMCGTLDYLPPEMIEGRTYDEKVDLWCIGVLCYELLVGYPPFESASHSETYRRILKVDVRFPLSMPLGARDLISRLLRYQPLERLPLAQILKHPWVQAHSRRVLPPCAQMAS

Where [1] appears, read: read-out: Niraparib (MK-4827) / %Ctrl @ 10000nM.
[2] abbreviates: read-out: Olaparib / %Ctrl @ 10000nM.
The mark [3] stands for this setting: read-out: Rucaparib / %Ctrl @ 10000nM, binding competition, % of control.
Setting [4] is: read-out: Talazoparib (BMN 673) / %Ctrl @ 10000nM.

Where two headings read alike, the source gives them in different places.

Sequence of LRRK2 (Q5S007 whole entry): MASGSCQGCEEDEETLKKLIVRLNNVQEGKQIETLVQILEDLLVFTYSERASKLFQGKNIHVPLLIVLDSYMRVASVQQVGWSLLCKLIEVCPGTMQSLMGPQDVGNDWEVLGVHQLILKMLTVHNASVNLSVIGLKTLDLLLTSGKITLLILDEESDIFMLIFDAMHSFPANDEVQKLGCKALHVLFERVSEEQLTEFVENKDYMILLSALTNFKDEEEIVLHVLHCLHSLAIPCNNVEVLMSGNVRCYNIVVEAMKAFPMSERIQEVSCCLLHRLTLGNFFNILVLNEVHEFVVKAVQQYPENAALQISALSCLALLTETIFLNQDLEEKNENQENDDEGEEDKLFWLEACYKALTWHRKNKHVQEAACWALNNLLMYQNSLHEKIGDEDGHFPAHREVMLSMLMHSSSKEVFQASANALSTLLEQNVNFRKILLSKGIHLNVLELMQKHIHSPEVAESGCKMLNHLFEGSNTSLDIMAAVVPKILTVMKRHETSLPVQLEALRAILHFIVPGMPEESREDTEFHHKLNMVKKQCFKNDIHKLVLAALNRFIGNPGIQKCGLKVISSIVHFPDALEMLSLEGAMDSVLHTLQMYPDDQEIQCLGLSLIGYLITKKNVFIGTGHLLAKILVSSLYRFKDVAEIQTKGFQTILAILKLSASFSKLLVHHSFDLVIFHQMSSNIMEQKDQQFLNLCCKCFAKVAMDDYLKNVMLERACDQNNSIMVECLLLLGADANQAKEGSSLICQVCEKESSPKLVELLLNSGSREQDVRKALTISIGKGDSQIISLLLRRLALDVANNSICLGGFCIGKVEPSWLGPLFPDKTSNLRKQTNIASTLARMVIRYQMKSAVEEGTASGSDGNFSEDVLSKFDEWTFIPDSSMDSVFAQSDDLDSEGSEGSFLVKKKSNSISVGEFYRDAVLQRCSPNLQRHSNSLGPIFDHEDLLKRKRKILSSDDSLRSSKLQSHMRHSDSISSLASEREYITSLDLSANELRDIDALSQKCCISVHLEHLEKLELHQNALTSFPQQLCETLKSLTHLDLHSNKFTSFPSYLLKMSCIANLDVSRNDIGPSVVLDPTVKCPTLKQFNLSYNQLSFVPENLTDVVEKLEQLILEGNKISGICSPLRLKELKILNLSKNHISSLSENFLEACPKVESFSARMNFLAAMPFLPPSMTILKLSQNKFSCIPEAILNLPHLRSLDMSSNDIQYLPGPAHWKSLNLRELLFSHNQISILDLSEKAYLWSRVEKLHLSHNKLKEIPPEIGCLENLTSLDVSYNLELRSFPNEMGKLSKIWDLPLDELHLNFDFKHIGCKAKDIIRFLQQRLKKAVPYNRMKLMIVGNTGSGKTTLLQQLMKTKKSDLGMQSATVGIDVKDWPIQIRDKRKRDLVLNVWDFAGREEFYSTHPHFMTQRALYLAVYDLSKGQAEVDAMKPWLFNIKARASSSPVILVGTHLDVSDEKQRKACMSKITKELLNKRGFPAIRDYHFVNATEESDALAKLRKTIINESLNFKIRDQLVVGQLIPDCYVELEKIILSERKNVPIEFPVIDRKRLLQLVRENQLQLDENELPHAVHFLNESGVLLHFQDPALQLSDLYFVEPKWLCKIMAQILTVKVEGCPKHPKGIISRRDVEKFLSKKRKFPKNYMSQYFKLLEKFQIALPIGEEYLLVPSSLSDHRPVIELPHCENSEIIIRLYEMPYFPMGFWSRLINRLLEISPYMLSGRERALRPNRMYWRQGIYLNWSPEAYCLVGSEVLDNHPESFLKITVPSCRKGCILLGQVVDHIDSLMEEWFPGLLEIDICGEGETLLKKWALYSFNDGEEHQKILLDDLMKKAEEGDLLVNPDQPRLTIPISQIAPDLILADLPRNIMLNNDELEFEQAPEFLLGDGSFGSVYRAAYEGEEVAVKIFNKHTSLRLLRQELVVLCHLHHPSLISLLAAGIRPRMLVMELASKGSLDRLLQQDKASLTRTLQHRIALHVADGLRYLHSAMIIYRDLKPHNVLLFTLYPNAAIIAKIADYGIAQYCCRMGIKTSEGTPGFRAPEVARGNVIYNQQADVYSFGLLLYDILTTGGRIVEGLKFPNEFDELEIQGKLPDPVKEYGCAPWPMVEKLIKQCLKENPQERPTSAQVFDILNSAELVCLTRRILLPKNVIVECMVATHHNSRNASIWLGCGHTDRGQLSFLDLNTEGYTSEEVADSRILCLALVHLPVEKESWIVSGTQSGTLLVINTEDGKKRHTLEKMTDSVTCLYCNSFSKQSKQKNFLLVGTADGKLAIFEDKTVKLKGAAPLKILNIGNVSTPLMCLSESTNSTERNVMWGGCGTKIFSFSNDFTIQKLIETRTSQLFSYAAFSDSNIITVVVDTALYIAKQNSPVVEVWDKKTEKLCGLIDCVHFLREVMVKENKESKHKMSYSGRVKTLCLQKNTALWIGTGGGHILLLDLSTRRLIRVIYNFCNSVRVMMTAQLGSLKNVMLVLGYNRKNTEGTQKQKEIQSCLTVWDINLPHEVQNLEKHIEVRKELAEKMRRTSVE

As for `NC(=O)c1cccc2cn(-c3ccc([C@@H]4CCCNC4)cc3)nc12` [Niraparib], the percent of control binding at 10 µM amounted to 96% at LRRK2 (setting [1]), 79% at PIK3C2G (setting [1]), 70% at FLT3 (setting [1]) and 56% on AURKC (setting [1]).
In the case of `O=C(c1cc(Cc2n[nH]c(=O)c3ccccc23)ccc1F)N1CCN(C(=O)C2CC2)CC1` [Olaparib], the percent of control binding at 10 µM worked out at 100% on LRRK2 (setting [2]), 82% on PIK3C2G (setting [2]), 100% at FLT3 (setting [2]) and 97% on AURKC (setting [2]).
With `CNCc1ccc(-c2[nH]c3cc(F)cc4c3c2CCNC4=O)cc1` [Rucaparib], the percent of control binding at 10 µM at LRRK2 (setting [3]) was determined as 78%; at PIK3C2G (setting [3]) it was 73%; on AURKC (setting [3]), 78%. Also, the “Rucaparib / %Ctrl @ 10000nM” value at FLT3 (binding competition, % of control) was determined as 98%.
For the compound `Cn1ncnc1[C@H]1c2n[nH]c(=O)c3cc(F)cc(c23)N[C@@H]1c1ccc(F)cc1` [Talazoparib], the percent of control binding at 10 µM at LRRK2 (setting [4]) stood at 100%; on PIK3C2G (setting [4]), 81%; on FLT3 (setting [4]), 94%; at AURKC (setting [4]) it was 100%.
